This is an account of results in patent US20240109937A1, “BINDING PEPTIDES AND USES THEREOF” (The Johns Hopkins University, priority 2021, published 2024).

One experiment relates to cleaved (75 kDa) CAPN1. The experiment can be described thus: Immunoblot of active CAPN1 in ISO/Ca2+-treated ES-CMs (chronic CAPN1 inhibition). It counts as cell-based, mouse. The settings on record: Dsg2^mut/mut ES-CMs, 7 days 50 μM ISO/1 μM Ca2+, calpeptin pretreatment. The protocol:
Mouse embryonic stem cells (ESs) were maintained and differentiated, and the absence of mycoplasma contamination was confirmed prior to experimental studies. Briefly, mouse ESs from both WT and Dsg2^mut/mut mice were derived from E3.5 embryos and maintained on gelatin-coated dishes in maintenance medium (Glasgow minimum essential medium supplemented with 10% fetal bovine serum and 3 μM Chir99021 and 1 μM PD98059 or 1000 U/ml ESGRO; Millipore), Glutamax, sodium pyruvate, and MEM non-essential amino acids (Thermo Fisher Scientific). For cardiomyocyte (CM) differentiation, ESs were plated in IMDM/Ham's F12 (Cellgro, at 3:1) supplemented with N2, B27, penicillin/streptomycin, 2 mM GlutaMAX, 0.05% BSA, 5 ng/ml L-ascorbic acid (Sigma-Aldrich), and α-monothioglycerol (MTG; Sigma-Aldrich) at a final density of 100,000 cells/ml to allow spheroid formation. After 48 hours, embryoid bodies were collected and transferred to ultra-low attachment plastic surface and induced for 40 hours with Activin A and Bmp4 (R&D Systems). Cells were then dissociated and plated as monolayers for 48 hours in the presence of 10 μM XAV to allow cardiomyocyte differentiation. The resulting ES-CMs were cultured 45 days before experimental procedures were performed.

For experiment [1], the system named is HL-1 cells. The experiment can be described thus: Intracellular Ca2+ (Fluo4 FF fluorescence) in HL-1 cells. The settings on record: Calcimycin 1 μM in HBS KV medium. It counts as cell-based, mouse. As for the experimental part: (§1) Calcium (Ca^2+) Overload Protocol: Rapid and sustained intracellular Ca^2+ overload was obtained by adding the Ca^2+-ionophore, calcimycin (1 μM), to HL-1 cells incubated for 10 min in HBS KV medium (1.26 mM CaCl2, 0.81 mM MgSO4, 0.44 mM KH2PO4, 142 mM KCl, 0.27 mM K2HPO4, 5.55 mM D-glucose, 1 mM Na3VO4, 20 mM Hepes pH 7.4). To monitor intracellular Ca^2+ variations, HL-1 cells were loaded with 5 μM Fluo-4 FF AM (Molecular Probes) in HBS Na (Sigma) for 30 min before the media was replaced with HBS KV.

In the next experiment the target is T1, CAPN1 (Mus musculus, UniProt O35350).
T1 construct: endogenous in cells; host or cells: HL-1 cardiomyocytes
T1 sequence (O35350 1-713): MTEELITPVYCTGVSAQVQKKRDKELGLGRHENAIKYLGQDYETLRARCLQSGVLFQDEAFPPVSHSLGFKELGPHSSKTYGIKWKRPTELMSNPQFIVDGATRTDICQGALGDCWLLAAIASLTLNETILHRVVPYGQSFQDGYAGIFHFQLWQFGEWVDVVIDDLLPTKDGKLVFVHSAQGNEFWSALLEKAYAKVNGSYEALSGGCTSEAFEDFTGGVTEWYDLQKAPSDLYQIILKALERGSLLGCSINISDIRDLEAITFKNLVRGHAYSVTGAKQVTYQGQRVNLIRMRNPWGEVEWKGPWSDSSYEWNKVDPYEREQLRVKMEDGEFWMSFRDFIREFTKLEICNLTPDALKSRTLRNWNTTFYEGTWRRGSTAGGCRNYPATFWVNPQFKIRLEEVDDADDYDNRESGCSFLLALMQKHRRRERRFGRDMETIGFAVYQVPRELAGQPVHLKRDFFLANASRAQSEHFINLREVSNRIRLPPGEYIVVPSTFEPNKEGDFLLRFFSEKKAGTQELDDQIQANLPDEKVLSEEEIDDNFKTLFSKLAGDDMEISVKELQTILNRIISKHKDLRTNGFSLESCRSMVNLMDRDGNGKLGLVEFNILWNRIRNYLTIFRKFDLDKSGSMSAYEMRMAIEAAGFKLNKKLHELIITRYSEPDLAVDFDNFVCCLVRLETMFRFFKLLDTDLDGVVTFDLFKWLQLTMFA
T1 sequence (O88456 1-268 partner): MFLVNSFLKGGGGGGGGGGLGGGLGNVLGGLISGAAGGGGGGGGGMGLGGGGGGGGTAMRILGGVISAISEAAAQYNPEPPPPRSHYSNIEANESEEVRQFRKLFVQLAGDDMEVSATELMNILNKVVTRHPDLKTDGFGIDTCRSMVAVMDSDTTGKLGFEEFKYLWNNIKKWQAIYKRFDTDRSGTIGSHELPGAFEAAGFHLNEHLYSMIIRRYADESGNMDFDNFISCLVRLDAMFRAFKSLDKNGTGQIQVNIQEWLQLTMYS
Description: Calpain activity assay (Suc-LLVY-AMC cleavage) in HL-1 cells under Ca2+ overload. The format is cell-based. The settings on record: Calcimycin 1 μM in HBS KV medium, dose-dependent response. As for the experimental part: as §1, with “KV. […] Calpain (CAPN) Activity Assay: […] HL-1 cells were grown in 24-well plates and incubated for 30 min in HBS Na (Sigma) with 25 μM Suc-LLVY-AMC (SEQ ID NO: 81) and 0.01% pluronic F127 (Molecular Probes) before treatment protocols. […] CAPN activity was inhibited via the addition of either calpeptin (Tocris) or PD150606 (Calbiochem) in the incubation medium.” for “KV.”

The subject of experiment [2] is HL-1 cells. Description: Mitochondrial membrane potential (JC-1) assay in HL-1 cells. It counts as cell-based, mouse. The settings on record: Calcimycin 1 μM in HBS KV medium. As for the experimental part:
Calcium (Ca^2+) Overload Protocol: Rapid and sustained intracellular Ca^2+ overload was obtained by adding the Ca^2+-ionophore, calcimycin (1 μM), to HL-1 cells incubated for 10 min in HBS KV medium (1.26 mM CaCl2, 0.81 mM MgSO4, 0.44 mM KH2PO4, 142 mM KCl, 0.27 mM K2HPO4, 5.55 mM D-glucose, 1 mM Na3VO4, 20 mM Hepes pH 7.4). To monitor intracellular Ca^2+ variations, HL-1 cells were loaded with 5 μM Fluo-4 FF AM (Molecular Probes) in HBS Na (Sigma) for 30 min before the media was replaced with HBS KV. […] Mitochondrial Membrane Potential (MMP) Assay: MMP was determined using the potentiometric probe, JC-1. JC-1 (Molecular Probes) is a cationic carbocyanine dye that selectively accumulates in polarized mitochondria, where it forms red fluorescent aggregates (excitation 485/emission 590 nm). Upon mitochondrial depolarization, JC-1 is released into the cytosol, whereas a monomer emits green fluorescence (excitation 485 nm/emission 520 nm). Therefore, MMP variations were monitored as the ratio of fluorescent emissions at 590/520 nm using a fluorimeter plate reader (Fluoroskan Ascent Labsystem). HL-1 cells were incubated with JC-1 (1.5 μM) for 30 min at 37° C. in HBS Na before treatment protocols.

Each structure is given as a SMILES string.

Turning to `CCCC[C@@H](C=O)NC(=O)[C@H](CC(C)C)NC(=O)OCc1ccccc1` [calpeptin], the “levels of cleaved (75 kDa) CAPN1” value in the experiment with cleaved (75 kDa) CAPN1 is “significantly lowered”. The “kinetics of cytosolic Ca2+ accumulation” value with HL-1 cells [1] is given as “neither of them had an impact”. Besides, at CAPN1, the “reduction in Ca2+ overload-induced CAPN1 substrate hydrolysis” value was about 75%. Also, the “Ca2+ overload-induced decrease in mitochondrial membrane potential (MMP)” value with HL-1 cells [2] is recorded as “significantly attenuated”.
